Data from patent US9682126B2, “Postprandial gastrokinetic agent” (ZERIA PHARMACEUTICAL CO., LTD., priority 2013, dated 2017).

Assays:
Suncus murinus [1] = test: Gastric motility in interdigestive period, sham-operated vs vagotomized (Example 2); assay type: in vivo; settings: motilin 50 ng/kg/min iv over 10 minutes
Procedure: Each of Suncus motilin (Scrum Inc., Tokyo, Japan) and human ghrelin (Asubio Pharma Co., Ltd., Hyogo, Japan) were dissolved in PBS containing 0.1% bovine serum albumin. Suncus murinus (male, outbred KAT strain, 7 to 15 weeks old, 60 to 100 g) was used for the experiment. Each animal was bred in a plastic cage provided with an empty can as a nest box under the following conditions: temperature at 23±2° C., illumination between 8:00 and 20:00, and free intake of commercial trout feed (SP, Nippon Formula Feed Mfg Co., Ltd., Yokohama, Japan). After 3 hours of fasting, Suncus murinus was anesthetized by an intraperitoneal injection of pentobarbital sodium (50 mg/kg). Through a midline incision, the stomach was exposed outside the body, and a force transducer was fixed via suture in the circular muscle direction of the body of stomach. The wire extending from the force transducer was inserted through the abdominal wall, passed under the skin, and exposed at the back of the neck. Thereafter, truncal vagotomy was performed. A lower portion of the esophagus was exposed, both branches of the vagus nerve were isolated, and about 3 mm of the vagus nerve was excised above the hepatic branch and the celiac branch. For sham-operated Suncus murinus, the vagus nerve was exposed, but not excised. An intravenous catheter was inserted in the right jugular, and extracorporeally fixed to the back. The catheter was filled with heparinized saline (100 units/mL) to prevent clotting. From 2 days after the operation, the gastric motility was recorded. Administration of motilin was initiated 10 minutes after completion of spontaneous phase III. Synthesized suncus motilin was continuously injected at 50 ng/kg/min over 10 minutes, and the continuously injected amount was 50 μL/100 g BW/min. Administration of ghrelin was initiated 10 minutes after completion of spontaneous phase II. […] Amplified analog signals were converted into digital signals by an analog-to-digital converter (ADC-20, Pico Technology Ltd, St Neots, UK), and the digital signals were recorded on a computer. Phase III contractions of MMC in conscious Suncus murinus were defined on the basis of those in dogs and humans (that is, clustered contractions with an amplitude of 8 g or more that lasts for 5 minutes or more). Gastric motility was quantitated using a motility index (MI). A motility index (MI) based on a drug was calculated using the following equation. MI (%)=A/B×100 A: AUC of contractions for 10 minutes during which the drug was administered B: […] Statistical analysis After ANOVA, Student's t test was performed.

Suncus murinus [2] = test: Postprandial motility by co-administration of ghrelin and motilin, ΔMI (Example 3); assay type: in vivo
Procedure: Each of Suncus motilin (Scrum Inc., Tokyo, Japan) and human ghrelin (Asubio Pharma Co., Ltd., Hyogo, Japan) was dissolved in PBS containing 0.1% bovine serum albumin.
Suncus murinus (male, outbred KAT strain, 7 to 39 weeks old, 56 to 91 g) was used for the experiment. The Each animal was bred in a plastic cage provided with an empty can as a nest box under the following conditions: temperature at 23±2° C., illumination between 8:00 and 20:00, and free intake of commercial trout feed (SP, Nippon Formula Feed Mfg Co., Ltd., Yokohama, Japan).
After 3 hours of fasting, Suncus murinus was anesthetized by an intraperitoneal injection of pentobarbital sodium (50 mg/kg). Through a midline incision, the stomach was exposed outside the body, and a force transducer was fixed via suture in the circular muscle direction of the body of stomach. The wire extending from the force transducer was inserted through the abdominal wall, passed under the skin, and exposed at the back of the neck.
An intravenous catheter was inserted in the right jugular, and extracorporeally fixed to the back. The catheter was filled with heparinized saline (100 units/mL) to prevent clotting.
Each of the operated Suncus murinus was allowed to recover for several days.
Drug administration and measurement of gastric motility were performed in the conscious, free-moving state without anesthesia.
2 g of feed was given to each Suncus murinus fastened (for 8 to 10 hours) for 10 minutes. After the intake of feed for 10 minutes, ghrelin (50, 1,000, or 3,000 ng/kg), motilin (300, 500, 1,000, or 3,000 ng/kg), or a mixed solution of ghrelin (15 or 50 ng/kg) and motilin (100, 200, or 300 ng/kg) was intravenously administered through a jugular vein catheter rapidly.
Amplified analog signals were converted into digital signals by an analog-to-digital converter (ADC-20, Pico Technology Ltd, St Neots, UK), and the digital signals were recorded on a computer.
Phase III contractions of MMC in conscious Suncus murinus were defined on the basis of those in dogs and humans (that is, clustered contractions with an amplitude of 8 g or more that lasts for 5 minutes or more).
Gastric motility was quantitated using a motility index (ΔMI). A motility index (ΔMI) based on a drug was calculated using the following equation. ΔMI (%)=(A−C)/B×100 A: AUC of contractions for 10 minutes during which the drug was administered B: AUC of 10-minute spontaneous phase III contractions appeared before administration of the drug C: (AUC of contractions appeared for 5 minutes between 5 and 10 minutes after the intake of feed)×2 (2) Results (FIG. 9) A. Action of Ghrelin Alone

[3] = motilin 300 ng/kg iv after feed intake
[4] = motilin 500 ng/kg iv after feed intake
[5] = motilin 1,000 ng/kg iv after feed intake
[6] = motilin 3,000 ng/kg iv after feed intake

CC[C@H](C)[C@H](NC(=O)[C@@H]1CCCN1C(=O)[C@@H](NC(=O)[C@@H](N)Cc1ccccc1)C(C)C)C(=O)N[C@@H](Cc1ccccc1)C(=O)N[C@H](C(=O)N[C@@H](Cc1ccc(O)cc1)C(=O)NCC(=O)N[C@@H](CCC(=O)O)C(=O)N[C@@H](CC(C)C)C(=O)N[C@@H](CCC(N)=O)C(=O)N[C@@H](CCCNC(=N)N)C(=O)N[C@@H](CCSC)C(=O)N[C@@H](CCC(N)=O)C(=O)N[C@@H](CCC(=O)O)C(=O)N[C@@H](CCCCN)C(=O)N[C@@H](CCC(=O)O)C(=O)N[C@@H](CCCNC(=N)N)C(=O)N[C@@H](CC(N)=O)C(=O)N[C@@H](CCCCN)C(=O)NCC(=O)N[C@@H](CCC(N)=O)C(=O)O)[C@@H](C)O [motilin]
motilin-induced phase III-like contractions (Suncus murinus [1]; both sham-operated and vagotomized, 10 minutes after spontaneous phase III): phase III-like contractions were observed | contraction duration due to motilin, sham-operated vs vagotomized (Suncus murinus [1]; phase I): a significant difference was not observed | motility index (MI) during administration of motilin, sham-operated vs vagotomized (Suncus murinus [1]; phase I): a significant difference was not observed | Motility Index (ΔMI) (Suncus murinus [2]; [3]): About 4.9% | contractions of the body of the stomach (Suncus murinus [2]; [3]): did not induce contractions of the body of the stomach | Motility Index (ΔMI) (Suncus murinus [2]; [4]): About 6.8% | contractions of the body of the stomach (Suncus murinus [2]; [4]): did not induce contractions of the body of the stomach | Motility Index (ΔMI) (Suncus murinus [2]; [5]): About 49.5% | phase III-like contractions (Suncus murinus [2]; [5]): induced phase III-like contractions | Motility Index (ΔMI) (Suncus murinus [2]; [6]): about 48.3% | phase III-like contractions (Suncus murinus [2]; [6]): induced phase III-like contractions
